This passage reports IC50 results from patent US8575160B2, “Imidazole derivatives as aldosterone synthase inhibitors” (Novartis AG, priority 2009, dated 2013).

The target of experiment [1] is T1, aldosterone synthase (CYP11B2) (Homo sapiens, UniProt P19099).
T1 construct: host or cells: NCI-H295R
T1 sequence (P19099 25-503): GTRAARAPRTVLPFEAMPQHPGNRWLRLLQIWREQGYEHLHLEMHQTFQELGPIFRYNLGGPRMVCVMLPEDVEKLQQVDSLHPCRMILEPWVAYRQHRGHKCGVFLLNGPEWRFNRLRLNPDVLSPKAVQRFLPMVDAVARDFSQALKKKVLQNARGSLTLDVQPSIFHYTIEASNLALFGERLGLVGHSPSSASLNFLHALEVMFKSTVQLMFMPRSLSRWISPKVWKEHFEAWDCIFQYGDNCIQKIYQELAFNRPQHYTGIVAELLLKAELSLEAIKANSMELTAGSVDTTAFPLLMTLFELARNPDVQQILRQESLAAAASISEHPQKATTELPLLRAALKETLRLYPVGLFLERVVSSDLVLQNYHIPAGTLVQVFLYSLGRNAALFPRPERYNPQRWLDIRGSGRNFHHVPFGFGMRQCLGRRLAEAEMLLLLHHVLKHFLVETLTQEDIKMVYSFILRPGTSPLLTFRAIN
The experiment can be described thus: cellular aldosterone production in NCI-H295R cells (aldosterone synthase inhibition). It counts as cell-based. The source says: In particular, the aldosterone synthase inhibitory activities in vitro can be determined by the following assay.
Human adrenocortical carcinoma NCI-H295R cell line was obtained from American Type Culture Collection (Manassas, Va.). Insulin/transferrin/selenium (ITS)-A supplement (100×), DMEM/F-12, antibiotic/antimycotic (100×), and fetal bovine serum (FBS) were purchased from Invitrogen (Carlsbad, Calif.). Anti-mouse PVT scintillation proximity assay (SPA) beads and NBS 96-well plates were obtained from GE Health Sciences (Piscataway, N.J.) and Corning (Acton, Mass.), respectively. Solid black 96-well flat bottom plates were purchased from Costar (Corning, N.Y.). Aldosterone and angiotensin (Ang II) were purchased from Sigma (St. Louis, Mo.). D[1,2,6,7-^3H(N)]aldosterone was acquired from PerkinElmer (Boston, Mass.). Nu-serum was a product of BD Biosciences (Franklin Lakes, N.J.).
For in vitro measurement of aldosterone activity, human adrenocortical carcinoma NCI-H295R cells are seeded in NBS 96-well plates at a density of 25,000 cells/well in 100 μl of a growth medium containing DMEM/F12 supplemented with 10% FCS, 2.5% Nu-serum, 1 μg ITS/ml, and 1× antibiotic/antimycotic. The medium is changed after culturing for 3 days at 37° C. under an atmosphere of 5% CO2/95% air. On the following day, cells are rinsed with 100 μl of phosphate-buffered saline (PBS) and incubated with 100 μl of treatment medium containing 1 μM Ang II and a compound at different concentrations in quadruplicate wells at 37° C. for 24 hr. At the end of incubation, 50 μl of medium is withdrawn from each well for measurement of aldosterone production by an SPA using mouse anti-aldosterone monoclonal antibodies.
Measurement of aldosterone activity can also be performed using a 96-well plate format. Each test sample is incubated with 0.02 μCi of D[1,2,6,7-^3H(N)]aldosterone and 0.3 μg of anti-aldosterone antibody in PBS containing 0.1% Triton X-100, 0.1% bovine serum albumin, and 12% glycerol in a total volume of 200 μl at room temperature for 1 hr. Anti-mouse PVT SPA beads (50 μl) are then added to each well and incubated overnight at room temperature prior to counting in a Microbeta plate counter. The amount of aldosterone in each sample is calculated by comparing with a standard curve generated using known quantities of the hormone.
(§1) Inhibition of the release of certain steroids can be used as a measure of the respective enzyme inhibition by the added test compounds. The dose-dependent inhibition of enzymic activity by a compound is calculated by means of an inhibition plot which is characterized by an IC50.
(§2) The IC50 values for active test compounds are ascertained by a simple linear regression analysis in order to construct inhibition plots without data weighting. The inhibition plot is calculated by fitting a 4-parameter logistic function to the raw data points using the least squares method. The equation of the 4-parameter logistic function is calculated as follows: Y=(d−a)/((1+(x/c)b))+a, where: a=minimum data level, b=gradient, I […], d=maximum data level, x=inhibitor concentration.

A further experiment addresses T2, CYP11B1 (Homo sapiens, UniProt P15538).
T2 construct: the NCI-H295R cells have CYP11 B1 (steroid 11 β-hydroxylase); host or cells: NCI-H295R
T2 sequence (P15538 25-503): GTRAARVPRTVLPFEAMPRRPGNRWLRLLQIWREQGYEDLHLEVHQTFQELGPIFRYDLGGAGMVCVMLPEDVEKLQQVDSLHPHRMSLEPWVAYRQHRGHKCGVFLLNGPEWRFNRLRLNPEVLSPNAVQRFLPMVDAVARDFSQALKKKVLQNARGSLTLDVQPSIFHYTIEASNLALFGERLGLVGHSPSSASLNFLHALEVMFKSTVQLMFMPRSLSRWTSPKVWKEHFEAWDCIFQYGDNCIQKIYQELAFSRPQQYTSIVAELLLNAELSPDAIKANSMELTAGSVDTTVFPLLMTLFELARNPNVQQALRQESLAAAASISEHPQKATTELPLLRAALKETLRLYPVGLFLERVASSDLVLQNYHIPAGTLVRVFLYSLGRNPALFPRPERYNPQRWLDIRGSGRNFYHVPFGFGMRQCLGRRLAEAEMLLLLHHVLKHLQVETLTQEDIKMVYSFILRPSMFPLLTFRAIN
Briefly: cellular cortisol production in NCI-H295R cells (CYP11B1 inhibition). It counts as cell-based.
Excerpt: The in vitro inhibitory activities for CYP11B1 can be determined by the following assay.
The cell line NCI-H295R was originally isolated from an adrenocortical carcinoma and has been characterized in the literature through the stimulable secretion of steroid hormones and the presence of the enymes essential for steroidogenesis. Thus, the NCI-H295R cells have CYP11 B1 (steroid 11 β-hydroxylase). The cells show the physiological property of zonally undifferentiated human foetal adrenocortical cells which, however, have the capacity to produce the steroid hormones which are formed in the three, phenotypically distinguishable zones in the adult adrenal cortex.
The NCI-H295R cells (American Type Culture Collection, ATCC, Rockville, Md., USA) are grown in Dulbeoco's Modified Eagle'Ham F-12 Medium (DME/F12), which has been supplemented with Ulroser SF Serum (Soprachem, Cergy-Saint-Christophe, France), insulin, transferrin, selenite (I-T-S, Becton Dickinson Biosiences, Franklin lakes, NJ, USA) and antibiotics in 75 cm^2 cell culture vessels at 37° C. and in a 95% air-5% carbon dioxide atmosphere. The cells are subsequently transferred for colony formation into a 24-well incubation vessel. They are cultivated there in DME/F12 medium, which is now supplemented with 0.1% bovine serum instead of Ultroser SF for 24 hours. The experiment is initiated by cultivating the cells in DME/F12 medium which is supplemented with 0.1% bovine serum albumin and test compound, in the presence or absence of cell stimulants, for 72 hours. The test substance is added in a concentration range from 0.2 nanomolar to […]. Cell stimulants which can be used are angiotensin 11 (1 D or 100 nanomolar), potassium ions (16 millimolar), forskolin (10 micromolar) or a combination of two stimulants.
The excretion of aldosterone, cortisol, corticosterone and estradiol/estrone into the culture medium can be detected and quantified by commercially available, specific monoclonal antibodies in radioimmunoassays in accordance with the manufacturer's instructions.
as §1, §2

What is called IC50 is the concentration at which inhibition is half-maximal.

Take `N#Cc1ccc([C@H]2C[C@](O)(c3ccc4ccccc4c3)c3cncn32)c(F)c1` [Example 1-16]: the IC50 in experiment [1] turned out to be 2 nM; on CYP11B1, 143 nM.

As to `N#Cc1ccc([C@H]2C[C@](O)(CC(=O)Nc3cccc(OC(F)(F)F)c3)c3cncn32)c(F)c1` [Example 4-15], the values for the IC50 (in experiment [1]; at CYP11B1) were 72 nM and 8780 nM, respectively.

In the case of `Cc1ccc([C@@]2(O)C[C@H](c3ccc(C#N)cc3F)n3cncc32)cc1C` [Example 1-4, 4-((5R,7S)-7-(3,4-dimethylphenyl)-7-hydroxy-6,7-dihydro-5H-pyrrolo[1,2-c]imidazol-5-yl)-3-fluorobenzonitrile], the figures for the IC50 (in experiment [1]; on CYP11B1) were 5 nM and 480 nM, respectively.

Regarding `N#Cc1ccc([C@H]2C[C@](O)(CCc3ccccc3)c3cncn32)c(F)c1` [Example 1-12], the IC50 in experiment [1] worked out at 2 nM; at CYP11B1, 6 nM.

As to `CC1(C)[C@H](c2ccc(C#N)cc2F)n2cncc2[C@@]1(O)c1ccc(F)cc1` [Example 1-53, 3-fluoro-4-((5R,7R)-7-(4-fluorophenyl)-7-hydroxy-6,6-dimethyl-6,7-dihydro-5H-pyrrolo[1,2-c]imidazol-5-yl)benzonitrile], the IC50 in experiment [1] was found to be 42 nM; at CYP11B1, 220 nM.

Regarding `N#Cc1ccc([C@H]2C[C@](O)(c3cccc(C4CC4)c3)c3cncn32)c(F)c1` [Example 1-2, 4-((5R,7S)-7-(3-cyclopropylphenyl)-7-hydroxy-6,7-dihydro-5H-pyrrolo[1,2-c]imidazol-5-yl)-3-fluorobenzonitrile], the values for the IC50 (in experiment [1]; at CYP11B1) were 27 nM and 84 nM, respectively.

In the case of `COc1cc(-c2cccc([C@@]3(O)C[C@H](c4ccc(C#N)cc4F)n4cncc43)c2)ccn1` [Example 2-10], the IC50 in experiment [1] turned out to be 6 nM; at CYP11B1, 338 nM.

`N#Cc1ccc([C@H]2C[C@](O)(c3cccc(-c4ccc(F)cc4)c3)c3cncn32)c(F)c1` [Example 1-30]: the results for the 50% inhibitory concentration (IC50) (in experiment [1]; on CYP11B1) were 25 nM and 522 nM, respectively.

Take `Cn1c([C@@]2(O)C[C@H](c3ccc(C#N)cc3F)n3cncc32)cc2ccccc21` [Example 1-50]: the IC50 was determined as 7 nM in experiment [1] and 1800 nM at CYP11B1.

Turning to `CCc1ccc([C@@]2(O)C[C@H](c3ccc(C#N)cc3F)n3cncc32)cc1` [Example 1-32], the IC50 stood at 6 nM in experiment [1] and 645 nM at CYP11B1.

In the case of `N#Cc1ccc([C@H]2C[C@](O)(C#CC3CC3)c3cncn32)c(F)c1` [Example 1-52, 4-((5R,7S)-7-(cyclopropylethynyl)-7-hydroxy-6,7-dihydro-6H-pyrrolo[1,2-c]imidazol-5-yl)-3-fluorobenzonitrile], the figures for the IC50 (in experiment [1]; on CYP11B1) were 142 nM and 273 nM, respectively.

With `N#Cc1ccc([C@H]2C[C@@](O)(c3ccc4ccccc4c3)c3cncn32)c(F)c1` [Example 1-17], the IC50 in experiment [1] came out at 1 nM; on CYP11B1, 14 nM.

As for `N#Cc1ccc([C@H]2CC[C@](O)(c3ccc(-c4ccccc4)cc3)c3cncn32)cc1` [Example 1-41], the figures for the IC50 (in experiment [1]; at CYP11B1) were 72 nM and 135 nM, respectively.

On to `Cc1cc(-c2ccc([C@@]3(O)C[C@H](c4ccc(C#N)cc4F)n4cncc43)cc2)ccn1` [Example 3-14], for which the IC50 in experiment [1] was 64 nM; at CYP11B1 it was 10200 nM.

`C=C[C@@]1(O)C[C@H](c2ccc(C#N)cc2F)n2cncc21` [Example 1-1, 3-fluoro-4-((5R,7S)-7-hydroxy-7-vinyl-6,7-dihydro-5H-pyrrolo[1,2-c]imidazol-5-yl)benzonitrile]: the results for the IC50 (in experiment [1]; at CYP11B1) were 11 nM and 472 nM, respectively.

`N#Cc1ccc([C@H]2C[C@](O)(c3ccc4c(c3)OCO4)c3cncn32)c(F)c1` [Example 1-13]: the IC50 is 34 nM in experiment [1] and 103 nM on CYP11B1.
